{"source": "ChEMBL document CHEMBL1201862", "about": "“PubChem BioAssay data set” (2004)", "assay_in_all_cases": "inhibition of tumour cell growth, NCI panel, 48 h", "key": {"[1]": {"system": "OVCAR-8"}, "[2]": {"system": "SK-MEL-5"}, "[3]": {"system": "NCI-H226"}, "[4]": {"system": "M19-MEL"}, "[5]": {"system": "BT-549"}, "[6]": {"system": "HL-60"}, "[7]": {"system": "PC-3"}, "[8]": {"system": "SN12C"}, "[9]": {"system": "SK-MEL-2"}, "[10]": {"system": "A498"}, "[11]": {"system": "HCT-15"}, "[12]": {"system": "SF-268"}, "[13]": {"system": "MOLT-4"}, "[14]": {"system": "SNB-19"}, "[15]": {"system": "NCI-H23"}, "[16]": {"system": "KM12"}, "[17]": {"system": "HCT-116"}, "[18]": {"system": "HOP-62"}, "[19]": {"system": "OVCAR-4"}, "[20]": {"system": "M14"}, "[21]": {"system": "SNB-75"}, "[22]": {"system": "T47D"}, "[23]": {"system": "HCC 2998"}, "[24]": {"system": "DMS-114"}, "[25]": {"system": "MDA-N"}, "[26]": {"system": "COLO 205"}, "[27]": {"system": "786-0"}, "[28]": {"system": "ACHN"}, "[29]": {"system": "SW-620"}, "[30]": {"system": "RPMI-8226"}, "[31]": {"system": "OVCAR-5"}, "[32]": {"system": "UACC-62"}, "[33]": {"system": "LOX IMVI"}, "[34]": {"system": "Malme-3M"}, "[35]": {"system": "SNB-78"}, "[36]": {"system": "K562"}, "[37]": {"system": "U-251"}, "[38]": {"system": "MDA-MB-435"}, "[39]": {"system": "MCF7"}, "[40]": {"system": "NCI/ADR-RES"}, "[41]": {"system": "DLD-1"}, "[42]": {"system": "NCI-H522"}, "[43]": {"system": "CAKI-1"}, "[44]": {"system": "TK-10"}, "[45]": {"system": "HOP-92"}, "[46]": {"system": "XF498"}, "[47]": {"system": "A549"}, "[48]": {"system": "KM-20L2"}, "[49]": {"system": "HT-29"}, "[50]": {"system": "OVCAR-3"}, "[51]": {"system": "UACC-257"}, "[52]": {"system": "CCRF-CEM"}, "[53]": {"system": "DMS-273"}, "[54]": {"system": "SF-295"}, "[55]": {"system": "MDA-MB-231"}, "[56]": {"system": "Hs-578T"}, "[57]": {"system": "DU-145"}, "[58]": {"system": "NCI-H460"}, "[59]": {"system": "UO-31"}, "[60]": {"system": "RXF 393"}, "[61]": {"system": "LXFL 529"}, "[62]": {"system": "EKVX"}, "[63]": {"system": "SK-OV-3"}, "[64]": {"system": "SF-539"}, "[65]": {"system": "SK-MEL-28"}, "[66]": {"system": "IGROV-1"}, "[67]": {"system": "SR"}}, "note": "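Exposure lasted 48 hours, with cells grown in 96-well plates and compounds tested at five concentrations. Here, GI50 denotes the concentration required for 50% inhibition of growth.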 The source made the active and inactive calls. No stated cut-off is given here; in the data, active = GI50 up to about 1.1 µM and inactive = higher."}
{"smiles": "CCOC(=O)C(Cc1cc(OC)c(CC(C(=O)OCC)C(=O)OCC)cc1OC)C(=O)OCC", "values": [{"measurement": "GI50", "setting": "[1]", "value": "> 81.1 µM (inactive)"}, {"measurement": "GI50", "setting": "[2]", "value": "> 100 µM (inactive)"}, {"measurement": "GI50", "setting": "[3]", "value": "> 91.4 µM (inactive)"}, {"measurement": "GI50", "setting": "[4]", "value": "> 100 µM (inactive)"}, {"measurement": "GI50", "setting": "[5]", "value": "> 100 µM (inactive)"}, {"measurement": "GI50", "setting": "[6]", "value": "> 100 µM (inactive)"}, {"measurement": "GI50", "setting": "[7]", "value": "> 100 µM (inactive)"}, {"measurement": "GI50", "setting": "[8]", "value": "> 100 µM (inactive)"}, {"measurement": "GI50", "setting": "[9]", "value": "> 100 µM (inactive)"}, {"measurement": "GI50", "setting": "[10]", "value": "> 100 µM (inactive)"}, {"measurement": "GI50", "setting": "[11]", "value": "> 100", "unit": "µM"}, {"measurement": "GI50", "setting": "[12]", "value": "> 94.4 µM (inactive)"}, {"measurement": "GI50", "setting": "[13]", "value": "> 100 µM (inactive)"}, {"measurement": "GI50", "setting": "[14]", "value": "> 68.5 µM (inactive)"}, {"measurement": "GI50", "setting": "[15]", "value": "> 100 µM (inactive)"}, {"measurement": "GI50", "setting": "[16]", "value": "> 100 µM (inactive)"}, {"measurement": "GI50", "setting": "[17]", "value": "> 100 µM (inactive)"}, {"measurement": "GI50", "setting": "[18]", "value": "> 59.3 µM (inactive)"}, {"measurement": "GI50", "setting": "[19]", "value": "> 100 µM (inactive)"}, {"measurement": "GI50", "setting": "[20]", "value": "> 100 µM (inactive)"}, {"measurement": "GI50", "setting": "[21]", "value": "28.6 µM (inactive)"}, {"measurement": "GI50", "setting": "[22]", "value": "> 100 µM (inactive)"}, {"measurement": "GI50", "setting": "[23]", "value": "> 100 µM (inactive)"}, {"measurement": "GI50", "setting": "[24]", "value": "> 100 µM (inactive)"}, {"measurement": "GI50", "setting": "[25]", "value": "> 100 µM (inactive)"}, {"measurement": "GI50", "setting": "[26]", "value": "> 100 µM (inactive)"}, {"measurement": "GI50", "setting": "[27]", "value": "61.5 µM (inactive)"}, {"measurement": "GI50", "setting": "[28]", "value": "> 100 µM (inactive)"}, {"measurement": "GI50", "setting": "[29]", "value": "> 100 µM (inactive)"}, {"measurement": "GI50", "setting": "[30]", "value": "> 100 µM (inactive)"}, {"measurement": "GI50", "setting": "[31]", "value": "> 100 µM (inactive)"}, {"measurement": "GI50", "setting": "[32]", "value": "> 100 µM (inactive)"}, {"measurement": "GI50", "setting": "[33]", "value": "> 100 µM (inactive)"}, {"measurement": "GI50", "setting": "[34]", "value": "> 100 µM (inactive)"}, {"measurement": "GI50", "setting": "[35]", "value": "57.9 µM (inactive)"}, {"measurement": "GI50", "setting": "[36]", "value": "> 100 µM (inactive)"}, {"measurement": "GI50", "setting": "[37]", "value": "> 66.4 µM (inactive)"}, {"measurement": "GI50", "setting": "[38]", "value": "> 100 µM (inactive)"}, {"measurement": "GI50", "setting": "[39]", "value": "> 100 µM (inactive)"}, {"measurement": "GI50", "setting": "[40]", "value": "> 100 µM (inactive)"}, {"measurement": "GI50", "setting": "[41]", "value": "> 100 µM (inactive)"}, {"measurement": "GI50", "setting": "[42]", "value": "> 100 µM (inactive)"}, {"measurement": "GI50", "setting": "[43]", "value": "> 100 µM (inactive)"}, {"measurement": "GI50", "setting": "[44]", "value": "> 100 µM (inactive)"}, {"measurement": "GI50", "setting": "[45]", "value": "26.9 µM (inactive)"}, {"measurement": "GI50", "setting": "[46]", "value": "21.6 µM (inactive)"}, {"measurement": "GI50", "setting": "[47]", "value": "> 100 µM (inactive)"}, {"measurement": "GI50", "setting": "[48]", "value": "> 100 µM (inactive)"}, {"measurement": "GI50", "setting": "[49]", "value": "> 100 µM (inactive)"}, {"measurement": "GI50", "setting": "[50]", "value": "> 100 µM (inactive)"}, {"measurement": "GI50", "setting": "[51]", "value": "> 100 µM (inactive)"}, {"measurement": "GI50", "setting": "[52]", "value": "> 100 µM (inactive)"}, {"measurement": "GI50", "setting": "[53]", "value": "> 100 µM (inactive)"}, {"measurement": "GI50", "setting": "[54]", "value": "> 92.7 µM (inactive)"}, {"measurement": "GI50", "setting": "[55]", "value": "44.9 µM (inactive)"}, {"measurement": "GI50", "setting": "[56]", "value": "> 100 µM (inactive)"}, {"measurement": "GI50", "setting": "[57]", "value": "> 100 µM (inactive)"}, {"measurement": "GI50", "setting": "[58]", "value": "> 100 µM (inactive)"}, {"measurement": "GI50", "setting": "[59]", "value": "44 µM (inactive)"}, {"measurement": "GI50", "setting": "[60]", "value": "> 55.7 µM (inactive)"}, {"measurement": "GI50", "setting": "[61]", "value": "> 100 µM (inactive)"}, {"measurement": "GI50", "setting": "[62]", "value": "> 100 µM (inactive)"}, {"measurement": "GI50", "setting": "[63]", "value": "> 93.8 µM (inactive)"}, {"measurement": "GI50", "setting": "[64]", "value": "29.2 µM (inactive)"}, {"measurement": "GI50", "setting": "[65]", "value": "> 100 µM (inactive)"}, {"measurement": "GI50", "setting": "[66]", "value": "> 100 µM (inactive)"}, {"measurement": "GI50", "setting": "[67]", "value": "> 100 µM (inactive)"}]}
